Broadly, the inhibition is the relative decrease from the control value, in per cent.

The source of these data is ChEMBL document CHEMBL5653615 (J Biol Chem, 2013).

Assay [1] has as its target Epidermal growth factor receptor (Homo sapiens) (UniProt P00533). The experiment in a line: Inhibition of human EGFR at 500 nM by HotSpot assay relative to control.
Assay [2] has as its target Tyrosine-protein kinase Yes (Homo sapiens) (UniProt P07947). The experiment in a line: Inhibition of human YES1 at 500 nM by HotSpot assay relative to control.
For assay [3], the target named is Serine/threonine-protein kinase 26 (Homo sapiens) (UniProt Q9P289). The experiment in a line: Inhibition of human MST4 at 500 nM by HotSpot assay relative to control.
The target of assay [4] is Tyrosine-protein kinase JAK1 (Homo sapiens) (UniProt P23458). The experiment in a line: Inhibition of human JAK1 at 500 nM by HotSpot assay relative to control.
The target in assay [5] is Glycogen synthase kinase-3 beta (Homo sapiens) (UniProt P49841). As to the kind of experiment: Inhibition of human GSK3b at 500 nM by HotSpot assay relative to control.
The target of assay [6] is Serine/threonine-protein kinase MRCK beta (Homo sapiens) (UniProt Q9Y5S2). As to the kind of experiment: Inhibition of human CDC42BPB at 500 nM by HotSpot assay relative to control.
Assay [7] has as its target T1, Aurora kinase C (Homo sapiens) (UniProt Q9UQB9).
T1 sequence (whole entry): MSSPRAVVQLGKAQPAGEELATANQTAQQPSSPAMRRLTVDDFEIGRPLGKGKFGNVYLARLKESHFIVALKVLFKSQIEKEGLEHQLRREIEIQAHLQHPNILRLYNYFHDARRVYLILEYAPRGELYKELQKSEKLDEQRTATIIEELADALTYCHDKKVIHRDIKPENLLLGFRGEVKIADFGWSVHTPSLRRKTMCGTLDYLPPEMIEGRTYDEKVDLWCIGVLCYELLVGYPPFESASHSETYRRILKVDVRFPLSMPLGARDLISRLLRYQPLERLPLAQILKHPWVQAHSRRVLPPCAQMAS
The experiment in a line: Inhibition of human Aurora C at 500 nM by HotSpot assay relative to control.

In assay [8] the target is Protein kinase C theta type (Homo sapiens) (UniProt Q04759). As to the kind of experiment: Inhibition of human PKCtheta at 500 nM by HotSpot assay relative to control.
Assay [9] deals with Serine/threonine-protein kinase WNK3 (Homo sapiens) (UniProt Q9BYP7). As to the kind of experiment: Inhibition of human WNK3 at 500 nM by HotSpot assay relative to control.
For assay [10], the target named is Dual specificity protein kinase CLK3 (Homo sapiens) (UniProt P49761). The experiment in a line: Inhibition of human CLK3 at 500 nM by HotSpot assay relative to control.
The target of assay [11] is T2, Serine/threonine-protein kinase Nek9 (Homo sapiens) (UniProt Q8TD19).
T2 sequence (whole entry): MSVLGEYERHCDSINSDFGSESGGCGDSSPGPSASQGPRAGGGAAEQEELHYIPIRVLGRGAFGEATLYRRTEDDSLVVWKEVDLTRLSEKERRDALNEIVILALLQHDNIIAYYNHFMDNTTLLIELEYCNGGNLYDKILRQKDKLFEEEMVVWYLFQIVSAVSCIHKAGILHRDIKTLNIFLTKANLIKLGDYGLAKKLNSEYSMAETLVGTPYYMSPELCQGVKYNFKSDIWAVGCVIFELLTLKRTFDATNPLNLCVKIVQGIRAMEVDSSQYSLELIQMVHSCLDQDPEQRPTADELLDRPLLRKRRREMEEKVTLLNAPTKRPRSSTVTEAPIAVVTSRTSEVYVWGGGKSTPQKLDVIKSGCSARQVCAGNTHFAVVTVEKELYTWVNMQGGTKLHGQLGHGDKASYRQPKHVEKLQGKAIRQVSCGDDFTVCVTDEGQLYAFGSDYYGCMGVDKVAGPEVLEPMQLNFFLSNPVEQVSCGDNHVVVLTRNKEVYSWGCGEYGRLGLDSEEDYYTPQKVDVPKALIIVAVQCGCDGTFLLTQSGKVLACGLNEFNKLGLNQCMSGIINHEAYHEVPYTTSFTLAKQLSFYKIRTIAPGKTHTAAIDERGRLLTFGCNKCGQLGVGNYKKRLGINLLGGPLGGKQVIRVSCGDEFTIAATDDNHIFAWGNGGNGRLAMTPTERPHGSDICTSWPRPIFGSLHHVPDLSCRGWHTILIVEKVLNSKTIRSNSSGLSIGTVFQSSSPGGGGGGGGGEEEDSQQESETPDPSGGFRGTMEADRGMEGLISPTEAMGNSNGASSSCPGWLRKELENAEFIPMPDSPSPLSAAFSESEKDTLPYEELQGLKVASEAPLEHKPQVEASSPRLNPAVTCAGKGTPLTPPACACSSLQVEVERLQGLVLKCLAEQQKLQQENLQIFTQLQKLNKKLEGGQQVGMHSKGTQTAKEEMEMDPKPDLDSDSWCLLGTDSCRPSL
As to the kind of experiment: Inhibition of human NEK9 at 500 nM by HotSpot assay relative to control.

Assay [12] concerns the target Protein kinase C delta type (Homo sapiens) (UniProt Q05655). The experiment in a line: Inhibition of human PKCd at 500 nM by HotSpot assay relative to control.
In assay [13] the target is T3, Mitogen-activated protein kinase kinase kinase 2 (Homo sapiens) (UniProt Q9Y2U5).
T3 sequence (whole entry): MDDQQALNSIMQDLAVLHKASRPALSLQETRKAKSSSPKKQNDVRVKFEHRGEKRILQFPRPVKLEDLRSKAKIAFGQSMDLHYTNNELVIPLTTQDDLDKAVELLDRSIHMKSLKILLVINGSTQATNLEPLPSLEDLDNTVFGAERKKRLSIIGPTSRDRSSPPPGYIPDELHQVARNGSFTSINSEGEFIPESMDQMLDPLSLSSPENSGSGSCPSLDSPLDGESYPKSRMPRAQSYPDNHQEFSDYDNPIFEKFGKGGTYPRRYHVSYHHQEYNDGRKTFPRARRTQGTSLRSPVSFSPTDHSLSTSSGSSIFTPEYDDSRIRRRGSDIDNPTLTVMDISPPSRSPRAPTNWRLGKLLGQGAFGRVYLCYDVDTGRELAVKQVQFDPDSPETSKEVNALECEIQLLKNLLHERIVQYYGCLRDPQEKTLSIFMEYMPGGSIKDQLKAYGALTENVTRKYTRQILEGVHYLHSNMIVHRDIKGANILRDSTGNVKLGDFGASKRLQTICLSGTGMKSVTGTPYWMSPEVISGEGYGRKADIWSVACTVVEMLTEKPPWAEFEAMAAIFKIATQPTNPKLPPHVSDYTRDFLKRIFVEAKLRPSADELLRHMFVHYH
The experiment in a line: Inhibition of human MEKK2 at 500 nM by HotSpot assay relative to control.

Assay [14] has as its target Tyrosine-protein kinase Lck (Homo sapiens) (UniProt P06239). The experiment in a line: Inhibition of human LCK at 500 nM by HotSpot assay relative to control.
For assay [15], the target named is Vascular endothelial growth factor receptor 3 (Homo sapiens) (UniProt P35916). As to the kind of experiment: Inhibition of human FLT4 at 500 nM by HotSpot assay relative to control.
In assay [16] the target is Proto-oncogene tyrosine-protein kinase receptor Ret (Homo sapiens) (UniProt P07949). The experiment in a line: Inhibition of human RET at 500 nM by HotSpot assay relative to control.
Chain of Proto-oncogene tyrosine-protein kinase receptor Ret (Homo sapiens) (P07949 whole entry): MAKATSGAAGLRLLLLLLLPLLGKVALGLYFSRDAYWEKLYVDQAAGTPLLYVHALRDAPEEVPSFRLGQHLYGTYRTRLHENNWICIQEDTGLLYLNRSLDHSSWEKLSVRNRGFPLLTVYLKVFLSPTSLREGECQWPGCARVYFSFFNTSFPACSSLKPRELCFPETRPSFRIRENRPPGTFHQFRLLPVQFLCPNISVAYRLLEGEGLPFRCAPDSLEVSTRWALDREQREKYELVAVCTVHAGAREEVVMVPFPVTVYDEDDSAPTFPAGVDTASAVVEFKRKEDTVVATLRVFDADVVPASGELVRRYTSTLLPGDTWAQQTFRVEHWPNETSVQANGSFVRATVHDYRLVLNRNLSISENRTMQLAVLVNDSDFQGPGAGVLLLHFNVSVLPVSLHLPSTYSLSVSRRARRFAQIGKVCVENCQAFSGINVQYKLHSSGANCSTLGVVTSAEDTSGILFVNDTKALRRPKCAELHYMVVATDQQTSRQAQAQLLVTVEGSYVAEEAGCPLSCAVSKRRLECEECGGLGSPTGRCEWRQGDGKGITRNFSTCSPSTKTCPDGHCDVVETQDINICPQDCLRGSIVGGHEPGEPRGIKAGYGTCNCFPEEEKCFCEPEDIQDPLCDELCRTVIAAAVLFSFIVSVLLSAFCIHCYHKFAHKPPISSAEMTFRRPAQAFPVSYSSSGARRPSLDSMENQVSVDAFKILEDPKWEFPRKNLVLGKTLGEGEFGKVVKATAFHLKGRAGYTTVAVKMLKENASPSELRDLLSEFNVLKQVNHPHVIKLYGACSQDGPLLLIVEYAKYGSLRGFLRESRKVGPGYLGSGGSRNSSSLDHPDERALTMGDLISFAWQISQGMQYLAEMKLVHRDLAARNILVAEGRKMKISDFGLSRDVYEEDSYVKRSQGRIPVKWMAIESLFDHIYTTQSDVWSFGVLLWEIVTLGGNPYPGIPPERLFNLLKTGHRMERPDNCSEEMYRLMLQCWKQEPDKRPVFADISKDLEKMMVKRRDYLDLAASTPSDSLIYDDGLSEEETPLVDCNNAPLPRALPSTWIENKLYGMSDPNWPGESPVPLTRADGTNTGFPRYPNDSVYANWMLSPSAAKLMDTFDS

Chain of Tyrosine-protein kinase JAK1 (Homo sapiens) (P23458 whole entry): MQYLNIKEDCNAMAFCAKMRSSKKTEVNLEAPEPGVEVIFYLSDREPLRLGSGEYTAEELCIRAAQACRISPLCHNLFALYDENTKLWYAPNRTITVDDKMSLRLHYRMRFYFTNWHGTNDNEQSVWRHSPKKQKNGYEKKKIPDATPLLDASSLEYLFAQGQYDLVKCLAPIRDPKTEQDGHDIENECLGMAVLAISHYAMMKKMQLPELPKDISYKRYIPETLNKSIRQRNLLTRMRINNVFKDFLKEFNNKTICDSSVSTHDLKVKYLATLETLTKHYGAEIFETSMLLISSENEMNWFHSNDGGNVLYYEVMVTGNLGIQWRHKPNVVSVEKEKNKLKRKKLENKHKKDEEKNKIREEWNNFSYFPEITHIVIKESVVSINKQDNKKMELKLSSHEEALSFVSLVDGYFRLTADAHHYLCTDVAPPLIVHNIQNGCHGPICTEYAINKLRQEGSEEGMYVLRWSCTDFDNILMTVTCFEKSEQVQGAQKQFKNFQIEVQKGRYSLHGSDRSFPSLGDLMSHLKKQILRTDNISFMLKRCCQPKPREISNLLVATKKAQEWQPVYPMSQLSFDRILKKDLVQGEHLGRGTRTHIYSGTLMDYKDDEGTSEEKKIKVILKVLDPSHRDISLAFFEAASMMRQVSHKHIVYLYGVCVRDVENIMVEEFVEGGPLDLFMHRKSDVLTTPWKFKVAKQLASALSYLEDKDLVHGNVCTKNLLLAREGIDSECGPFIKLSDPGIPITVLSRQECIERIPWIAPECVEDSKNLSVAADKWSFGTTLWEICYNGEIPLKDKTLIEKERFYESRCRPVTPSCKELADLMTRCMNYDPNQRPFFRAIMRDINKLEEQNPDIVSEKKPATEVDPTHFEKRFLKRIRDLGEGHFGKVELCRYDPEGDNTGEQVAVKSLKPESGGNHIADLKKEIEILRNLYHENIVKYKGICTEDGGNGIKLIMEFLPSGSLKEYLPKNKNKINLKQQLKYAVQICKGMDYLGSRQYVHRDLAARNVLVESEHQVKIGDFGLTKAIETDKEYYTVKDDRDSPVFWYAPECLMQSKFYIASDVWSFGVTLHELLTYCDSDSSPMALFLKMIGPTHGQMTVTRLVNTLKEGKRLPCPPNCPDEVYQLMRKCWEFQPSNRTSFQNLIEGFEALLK
Chain of Tyrosine-protein kinase Yes (Homo sapiens) (P07947 2-543 limits assumed): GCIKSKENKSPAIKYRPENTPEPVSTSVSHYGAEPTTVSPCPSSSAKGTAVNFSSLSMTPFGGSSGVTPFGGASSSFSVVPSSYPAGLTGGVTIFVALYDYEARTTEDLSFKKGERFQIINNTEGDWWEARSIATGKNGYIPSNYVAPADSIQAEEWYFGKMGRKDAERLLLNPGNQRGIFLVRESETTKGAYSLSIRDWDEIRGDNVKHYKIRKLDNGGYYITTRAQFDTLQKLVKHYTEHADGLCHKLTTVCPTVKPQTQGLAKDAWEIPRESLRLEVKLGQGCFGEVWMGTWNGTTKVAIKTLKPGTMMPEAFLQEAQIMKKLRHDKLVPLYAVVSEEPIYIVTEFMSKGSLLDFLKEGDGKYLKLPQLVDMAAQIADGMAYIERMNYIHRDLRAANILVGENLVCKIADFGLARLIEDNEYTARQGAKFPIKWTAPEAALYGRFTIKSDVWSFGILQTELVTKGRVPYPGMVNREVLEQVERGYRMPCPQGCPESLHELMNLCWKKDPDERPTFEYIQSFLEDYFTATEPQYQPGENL
Chain of Glycogen synthase kinase-3 beta (Homo sapiens) (P49841 whole entry, looked up): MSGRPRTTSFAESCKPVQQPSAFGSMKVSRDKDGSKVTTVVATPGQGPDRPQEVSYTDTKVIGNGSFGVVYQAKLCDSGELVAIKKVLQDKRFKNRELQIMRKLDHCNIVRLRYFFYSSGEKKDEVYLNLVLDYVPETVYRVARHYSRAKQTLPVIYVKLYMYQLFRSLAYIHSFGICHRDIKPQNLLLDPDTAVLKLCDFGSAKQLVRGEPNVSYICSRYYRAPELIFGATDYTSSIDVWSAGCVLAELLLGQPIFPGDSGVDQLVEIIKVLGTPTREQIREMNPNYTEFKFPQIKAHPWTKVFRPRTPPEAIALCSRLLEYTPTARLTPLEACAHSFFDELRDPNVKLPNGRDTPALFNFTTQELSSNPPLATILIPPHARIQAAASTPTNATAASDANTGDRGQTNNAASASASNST
Chain of Protein kinase C theta type (Homo sapiens) (Q04759 whole entry, looked up): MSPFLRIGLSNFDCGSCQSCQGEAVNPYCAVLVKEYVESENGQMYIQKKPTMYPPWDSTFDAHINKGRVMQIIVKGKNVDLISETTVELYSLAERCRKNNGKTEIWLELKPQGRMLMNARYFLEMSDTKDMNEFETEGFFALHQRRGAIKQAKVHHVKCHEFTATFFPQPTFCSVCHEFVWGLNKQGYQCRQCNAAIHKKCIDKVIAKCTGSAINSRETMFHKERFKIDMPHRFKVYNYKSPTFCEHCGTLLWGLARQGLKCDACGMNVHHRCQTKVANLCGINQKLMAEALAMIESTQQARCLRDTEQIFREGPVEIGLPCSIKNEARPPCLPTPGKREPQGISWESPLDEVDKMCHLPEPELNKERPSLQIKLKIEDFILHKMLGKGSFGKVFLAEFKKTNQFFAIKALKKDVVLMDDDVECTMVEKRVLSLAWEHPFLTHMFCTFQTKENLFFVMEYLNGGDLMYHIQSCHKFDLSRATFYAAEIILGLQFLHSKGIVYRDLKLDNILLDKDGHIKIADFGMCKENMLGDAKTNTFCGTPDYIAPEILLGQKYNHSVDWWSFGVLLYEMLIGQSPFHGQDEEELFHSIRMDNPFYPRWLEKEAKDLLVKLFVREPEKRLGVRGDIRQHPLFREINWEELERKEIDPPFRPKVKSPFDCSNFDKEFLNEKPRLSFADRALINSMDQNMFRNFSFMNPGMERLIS
Chain of Serine/threonine-protein kinase 26 (Homo sapiens) (Q9P289 2-416 limits assumed): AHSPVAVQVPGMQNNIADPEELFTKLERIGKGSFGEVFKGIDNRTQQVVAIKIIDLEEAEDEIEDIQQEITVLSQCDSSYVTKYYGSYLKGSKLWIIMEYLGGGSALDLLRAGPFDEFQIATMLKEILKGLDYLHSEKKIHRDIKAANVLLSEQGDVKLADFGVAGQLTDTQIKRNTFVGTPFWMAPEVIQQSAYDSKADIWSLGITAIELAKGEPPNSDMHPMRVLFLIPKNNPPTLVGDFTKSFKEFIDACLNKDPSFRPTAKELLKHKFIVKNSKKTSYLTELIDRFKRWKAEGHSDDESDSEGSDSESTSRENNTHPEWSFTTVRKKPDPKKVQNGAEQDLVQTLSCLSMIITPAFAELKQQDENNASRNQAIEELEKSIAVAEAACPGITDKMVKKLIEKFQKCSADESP
Chain of Tyrosine-protein kinase Lck (Homo sapiens) (P06239 2-509 limits assumed): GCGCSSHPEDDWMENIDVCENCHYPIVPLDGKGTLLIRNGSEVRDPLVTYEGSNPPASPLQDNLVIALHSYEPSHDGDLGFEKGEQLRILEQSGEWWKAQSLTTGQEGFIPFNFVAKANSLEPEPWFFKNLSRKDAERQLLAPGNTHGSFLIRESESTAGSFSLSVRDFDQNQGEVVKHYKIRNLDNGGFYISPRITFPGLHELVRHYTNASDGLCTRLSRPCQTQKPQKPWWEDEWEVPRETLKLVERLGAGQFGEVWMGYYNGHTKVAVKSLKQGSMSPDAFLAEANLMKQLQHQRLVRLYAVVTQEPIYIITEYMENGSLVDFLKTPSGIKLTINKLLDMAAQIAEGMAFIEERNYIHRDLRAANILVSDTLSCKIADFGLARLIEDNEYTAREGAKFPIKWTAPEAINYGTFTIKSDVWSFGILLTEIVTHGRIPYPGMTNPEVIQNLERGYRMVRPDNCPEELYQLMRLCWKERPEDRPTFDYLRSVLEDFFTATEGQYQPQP

`Nc1n[nH]c2nnc(-c3c(-c4ccccc4)nn4ccccc34)cc12`: the inhibition was 16.1% in assay [1]; 8.91% in assay [2]; 24.1% in [3]; -3.59% in assay [4]; -9.06% in assay [5]; 6.62% in assay [6]. Further, the inhibition is 3.59% in assay [7]; 20.1% in assay [8]; -1.28% in [9]; 5.1% in [10]; 6.65% in assay [11]; 68.8% in assay [12]. Further, the inhibition came to 2.22% in [13], 4.93% in assay [14], 10.1% in assay [15] and 6.33% in [16].
With `Oc1n[nH]c2nnc(-c3c(-c4ccccc4)nn4ccccc34)cc12`, the inhibition in assay [1] was 10%; in assay [2], 4.49%; in [3] it was 3.66%; in assay [4], -1.98%; in [5], -9.9%; in [6], 4.33%. Also, the inhibition in assay [7] came to 2.04%; in [8], 8.59%; in assay [9], 0.29%; in assay [10], 1.04%; in [11] it was 10.2%; in assay [12], 2.29%. Also, the inhibition in assay [13] was -0.17%; in [14], -0.49%; in assay [15] it was 0.44%; in assay [16], -3.97%.
